Results from patent US20250333397A1 (REMIX THERAPEUTICS INC., priority 2021, published 2025).
Where a name gives a salt, the structure may show the parent alone. Read-outs that look alike come from different tables or passages of the source.

Columns and labels:
Format in all cases: cell-based, human
[1] = test system: HTT mRNA; assay: RT-qPCR splicing assay, HTT canonical (CJ) and alternative (AJ) junction mRNA; conditions: Homo sapiens; for AC50: read-out: HTT AJ (AC50, increase in AJ mRNA)
Summary of the method: (§1)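 CJ and AJ junction levels were quantified by RT-qPCR on lysates, with housekeeper ΔCt normalized to DMSO (ΔΔCt) and expressed as RQ = 2^(-ΔΔCt). Before lysis, K562 or A673 cells had 24 h compound exposure at 37 °C. Dosing was 11 points, 3-fold, from 10 uM final, with DMSO at most 0.25%.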

[2] = test system: MYB mRNA; assay: RT-qPCR splicing assay, MYB canonical (CJ) and alternative (AJ) junction mRNA; conditions: Homo sapiens; for AC50: read-out: MYB AJ (AC50, increase in AJ mRNA)
Summary of the method: as §1

[3] = test system: Target C mRNA; assay: RT-qPCR splicing assay panel, Target C canonical junction (CJ) mRNA; conditions: Homo sapiens, canonical junction (CJ) mRNA, RT-qPCR panel, Table 4A; read-out: Target C, decrease in CJ mRNA levels, IC50
Summary of the method: as §1

[4] = test system: SMN2 mRNA; assay: RT-qPCR splicing assay panel, SMN2 canonical junction (CJ) mRNA; conditions: Homo sapiens, canonical junction (CJ) mRNA, RT-qPCR panel, Table 4A; read-out: SMN2, decrease in CJ mRNA levels, IC50
Summary of the method: as §1

[5] = 24 h, Table 3A, A673 or K562 cells, 24 h treatment
[6] = 24 h, Table 3A, A673 or K562 cells, 24 h treatment, read-out: HTT CJ (IC50, decrease in CJ mRNA)
[7] = canonical junction (CJ) mRNA, RT-qPCR panel, Table 4A, read-out: HTT, decrease in CJ mRNA levels, IC50
[8] = 24 h, Table 3A, A673 or K562 cells, 24 h treatment, read-out: MYB CJ (IC50, decrease in CJ mRNA)
[9] = canonical junction (CJ) mRNA, RT-qPCR panel, Table 4A, read-out: MYB, decrease in CJ mRNA levels, IC50

IC50 [1, 6] [µM]	IC50 [1, 7] [µM]	IC50 [2, 8] [µM]	IC50 [2, 9] [µM]	IC50 [3] [µM]	IC50 [4] [µM]	SMILES	AC50 [1, 5] [µM]	AC50 [2, 5] [µM]
< 0.1	< 0.1	1 to 10	1 to 10	0.1 to 1	< 0.1	Cc1nsc(-c2cc(O)c(-c3ccc(N4CC[C@H](NCC5CC5)C4)nn3)cc2F)n1 [Compound 432]	0.1 to 1	0.1 to 1
1 to 10	1 to 10	> 10	> 10	> 10	1 to 10	CC(C)(C)NC1CCN(c2ccc(-c3ccc(-n4cccn4)c(O)c3)nn2)C1 (centres unmarked) [Compound 109, 5-{6-[3-(tert-butylamino)pyrrolidin-1-yl]pyridazin-3-yl}-2-(pyrazol-1-yl)phenol trifluoroacetate]	> 10	> 10
< 0.1	< 0.1	0.1 to 1	0.1 to 1	0.1 to 1	< 0.1	COc1cc(-c2ccc(-c3ccc(N4CC[C@@](C)(NCC5CC5)C4)nn3)c(O)c2)ncn1 [Compound 375, 2-{6-[(3R)-3-[(cyclopropylmethyl)amino]-3-methylpyrrolidin-1-yl]pyridazin-3-yl}-5-(6-methoxypyrimidin-4-yl)phenol]	0.1 to 1	1 to 10
1 to 10	1 to 10	> 10	> 10	> 10	0.1 to 1	Oc1cc(-c2cnnc(C3CC3)c2)ccc1-c1ccc(N2CC[C@@H](NC3CCC3)C2)nn1 [Compound 279, 2-{6-[(3R)-3-(cyclobutylamino)pyrrolidin-1-yl]pyridazin-3-yl}-5-(6-cyclopropylpyridazin-4-yl)phenol]	> 10	> 10
< 0.1	< 0.1	0.1 to 1	0.1 to 1	0.1 to 1	0.1 to 1	COc1cc(-c2ccc(-c3ccc(N4CCC(NC56CC(C5)C6)C4)nn3)c(O)c2)cnn1 (centres unmarked) [Compound 335, 2-[6-(3-{bicyclo[1.1.1]pentan-1-ylamino}pyrrolidin-1-yl)pyridazin-3-yl]-5-(6-methoxypyridazin-4-yl)phenol]	0.1 to 1	1 to 10
< 0.1	< 0.1	0.1 to 1	0.1 to 1	0.1 to 1	< 0.1	Cc1ncc(-c2cc(O)c(-c3ccc(N4CC[C@@H](NCC5CCC5)C4)nn3)cc2F)s1 [Compound 395]	0.1 to 1	0.1 to 1
0.1 to 1	0.1 to 1	0.1 to 1	0.1 to 1	0.1 to 1	< 0.1	Cc1nc(C#N)c(-c2cc(O)c(-c3ccc(N4CC[C@@H](NC5CCC5)C4)nn3)cc2F)s1 [Compound 428]	0.1 to 1	0.1 to 1
0.1 to 1	0.1 to 1	1 to 10	1 to 10	0.1 to 1	< 0.1	COc1cc(-c2cc(O)c(-c3ccc(N4CC[C@H](NC(C)(C)C)C4)nn3)cc2F)cnn1 [Compound 211, 2-{6-[(3S)-3-(tert-butylamino)pyrrolidin-1-yl]pyridazin-3-yl}-4-fluoro-5-(6-methoxypyridazin-4-yl)phenol]	0.1 to 1	1 to 10
< 0.1	< 0.1	< 0.1	< 0.1	< 0.1	< 0.1	Cc1ncc(-c2ccc(-c3ccc(N4CC[C@H](NCC5CC5)C4)nn3)c(O)c2)s1 [Compound 380, 2-{6-[(3S)-3-[(cyclopropylmethyl)amino]pyrrolidin-1-yl]pyridazin-3-yl}-5-(2-methyl-1,3-thiazol-5-yl)phenol]	< 0.1	< 0.1
< 0.1	< 0.1	0.1 to 1	0.1 to 1	0.1 to 1	< 0.1	COc1cc(-c2cc(O)c(-c3ccc(OC4CC(C)(C)NC(C)(C)C4)nn3)cc2F)cnn1 [Compound 272]	< 0.1	0.1 to 1
